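Results reflect a 48-hour exposure of cells in 96-well plates to compound at five concentrations. TGI: total growth inhibition.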
Experiments:
Assay in all cases: growth of human tumour cells (NCI), 48 h
[1] = test system: NCI-H23 lung
[2] = test system: ACHN renal
[3] = test system: HCC-2998 colon
[4] = test system: DU-145 prostate
[5] = test system: NCI-H460 lung
[6] = test system: EKVX NSCLC
[7] = test system: HL-60(TB) leukemia
[8] = test system: MCF7 breast
[9] = test system: RPMI-8226 leukemia
[10] = test system: SK-MEL-28 melanoma
[11] = test system: SF-539 CNS
[12] = test system: MOLT-4 leukemia
[13] = test system: COLO 205 colon
[14] = test system: NCI/ADR-RES ovarian
[15] = test system: U251 CNS
[16] = test system: UO-31 renal
[17] = test system: HCT-15 colon

| Compound | TGI [1] [µM] | TGI [2] [µM] | TGI [3] [µM] | TGI [4] [µM] | TGI [5] [µM] | TGI [6] [µM] | TGI [7] [µM] | TGI [8] [µM] | TGI [9] [µM] | TGI [10] [µM] | TGI [11] [µM] | TGI [12] [µM] | TGI [13] [µM] | TGI [14] [µM] | TGI [15] [µM] | TGI [16] [µM] | TGI [17] [µM] |
| --- | --- | --- | --- | --- | --- | --- | --- | --- | --- | --- | --- | --- | --- | --- | --- | --- | --- |
| O=C(CNc1ccc([N+](=O)[O-])cc1)Nn1c(-c2ccccc2)nc2ccccc2c1=O | 7.13 | 14.6 | 22.6 | 23.3 | 14.3 | 28.6 | 14 | 7.08 | 14.8 | 10.8 | 6.61 | 10.6 | 5.31 | 7.65 | 4.47 | 14.1 | 7.64 |
| Cc1ccc(NC(=O)CC(=O)N2N=C(N(c3ccccc3)c3ccccc3)CC2c2ccccc2)cc1 (centres undefined) | > 100 | > 100 | > 100 | > 100 | > 100 | > 100 | > 100 | > 100 | > 100 | > 100 | > 100 | > 100 | > 100 | > 100 | > 100 | > 100 | > 100 |
| CN(C)/C=N/c1cc(=O)n(C)c(=O)n1C | > 100 | > 100 | > 100 | > 100 | > 100 | > 100 | > 100 | > 100 | > 100 | > 100 | > 100 | > 100 | > 100 | > 100 | > 100 | > 100 | > 100 |
| O=C(NCCc1ccccn1)c1ccc2cc(C(=O)N3CC(CCl)c4ccc([N+](=O)[O-])cc43)[nH]c2c1 (centres undefined) | > 100 | > 100 | > 100 | > 100 | > 100 | > 100 | > 100 | > 100 | > 100 | > 100 | > 100 | > 100 | > 100 | > 100 | > 100 | > 92.8 | > 100 |
| CC(=O)Nn1c(Cc2ccc(Cl)cc2)nn(C)c1=O | > 100 | > 100 | > 100 | > 100 | > 100 | > 100 | > 100 | > 100 | > 100 | > 100 | > 100 | > 100 | > 100 | > 100 | > 100 | > 100 | > 100 |
| O=C(O)CCC1C(=O)C2CCN1CC2 (centres undefined) | > 100 | > 100 | > 100 | > 100 | > 100 | > 100 | > 100 | > 100 | > 100 | > 100 | > 100 | > 100 | > 100 | > 100 | > 100 | > 100 | > 100 |
| OC(Cc1cnnc2ccccc12)C(Cl)(Cl)Cl (centres undefined) | > 10 | > 10 | > 10 | > 10 | > 10 | > 10 | > 10 | > 10 | > 10 | > 10 | > 10 | > 10 | > 10 | > 10 | > 10 | > 10 | > 10 |
| C=C(Cl)[C@](Cl)(CBr)CC[C@@H](Br)C(C)(C)Cl | 28.5 | 2.31 | 2.93 | 2.74 | 2.46 | 8.04 | 2.06 | 2.18 | 0.363 | 3.27 | 1.28 | 31.9 | 3.41 | 4.32 | 0.335 | 2.41 | 4.64 |
| Cc1cccc2c(N)c3cccc(C(=O)NCCNCCN)c3nc12 | 6.21 | > 100 | > 40.8 | > 72.4 | 19.8 | > 94.6 | > 100 | > 100 | > 90.1 | 36 | 22.4 | > 96.1 | > 33.4 | > 100 | > 24.5 | 51.5 | > 100 |
| COC1=CC(=O)C2=C(C1=O)[C@H]1CC[C@]3(C)C(=O)CC[C@H]3[C@@H]1CC2 | > 100 | 79.3 | > 100 | 57.1 | > 100 | 30.4 | 22.4 | 35.4 | 81.3 | > 100 | 38.1 | > 100 | > 100 | > 100 | > 100 | 56.8 | > 100 |
| O=C1NC(=Nc2ccccc2Cl)N/C1=C\c1c(Cl)cccc1Cl | > 100 | > 100 | 55.3 | > 100 | 68.2 | 79.3 | 54.2 | > 100 | 56.6 | > 100 | > 100 | > 100 | 56.2 | 86 | > 100 | 66.3 | > 100 |
| CC(NC1=NCCO1)c1ccsc1 (centres undefined) | > 100 | > 100 | > 100 | > 100 | 33.2 | > 100 | 53.3 | > 100 | 59.9 | 43 | 38.2 | 52.3 | 35.3 | > 100 | 36.8 | > 100 | > 100 |
| CSc1ccccc1NC1=NCCO1 | > 100 | > 100 | > 100 | > 100 | > 100 | > 100 | > 100 | > 100 | > 100 | > 100 | > 100 | > 100 | > 100 | > 100 | > 100 | > 100 | > 100 |
| CC(O)C1(O)C(O)CC(OC2c3cc4c(c(O)c3[C@@H]3C[C@@]2(C)OC32C=c3cc[nH]c3=N2)C(=O)c2cccc(O)c2C4=O)OC1C (some centres undefined) | 3.81 | 4.04 | 2.84 | 8.8 | 4.03 | 3.6 | 3.07 | 1.69 | 4.88 | 3.78 | 2.79 | 2.67 | 1.97 | 18 | 9.03 | 8.44 | 6.41 |
| CN1CCOC1(C)c1ccccc1 (centres undefined) | > 100 | > 100 | > 100 | > 100 | > 100 | > 100 | > 100 | > 100 | > 100 | > 100 | > 100 | > 100 | > 100 | > 100 | > 100 | > 100 | > 100 |
| COC(=O)c1ccccc1/C=C1\Cc2ccc3c(c2C1=O)CCC3 | > 100 | > 100 | > 100 | > 100 | > 100 | > 100 | > 100 | > 100 | > 100 | > 100 | > 100 | > 100 | > 100 | > 100 | > 100 | > 100 | > 100 |
| COC(=O)c1cc(C#N)[nH]c1-c1ccc(Br)s1 | 18.9 | 31.9 | 31.8 | 31.6 | 37.8 | 17.1 | 36.5 | 18.6 | > 73.3 | 24.4 | 27.2 | 64.9 | 29.1 | 30.6 | 24.8 | 15.6 | 28 |
| Cc1cc(N(C)c2ccccc2)nc(N(C)c2ccccc2)n1 | > 100 | 95.7 | 79.6 | > 100 | > 100 | > 100 | 59.6 | 68.4 | 65.1 | 98 | 66.5 | 99.9 | 49.1 | > 100 | > 100 | > 100 | > 100 |
| CC(=O)n1nc(-c2[nH]c(C)c(-c3nn(C(C)=O)c(=S)o3)c2C)oc1=S | > 100 | > 100 | > 100 | > 100 | > 100 | > 100 | > 100 | > 100 | > 100 | > 100 | > 100 | > 100 | > 100 | > 100 | > 100 | > 100 | > 100 |
| COC(=O)CSc1cc(Cl)c(C)cc1S(=O)(=O)Nc1n[nH]c(N)n1 | > 10 | > 10 | > 10 | > 10 | > 10 | > 10 | > 10 | > 10 | > 10 | > 10 | > 10 | > 10 | > 10 | > 10 | > 10 | > 10 | > 10 |
| CC(=O)OC1CCn2c1nc1c2C(=O)C=C(N2CC2)C1=O (centres undefined) | 1.08 | 0.173 | 3.07 | 12.7 | 5.96 | 2.39 | 0.494 | 0.957 | 1.37 | 0.147 | 0.696 | 0.208 | 0.219 | 1.28 | 0.853 | 0.35 | 1.96 |
| CSc1ncc2c(C#N)c3n(C)c4ccccc4n3c(=O)c2n1 | > 100 | > 100 | > 100 | > 100 | > 100 | > 100 | > 100 | > 100 | > 100 | > 100 | > 100 | > 100 | > 100 | > 100 | > 100 | > 100 | > 100 |
